ChEMBL document CHEMBL1149672, “Synthesis of cryptolepine analogues as potential bioreducible anticancer agents” (Bioorg Med Chem, 2007)
Structures can show the parent of a compound that is named as a salt.

How the values were obtained:
BE [1] = assay: Cytotoxicity against low NQO1 protein expressing human BE cells by MTT assay; format: functional, cell-based
NCI-H460 = assay: Cytotoxicity against high NQO1 protein expressing human H460 cells by MTT assay; format: functional, cell-based
[2] = biological target: NAD(P)H dehydrogenase [quinone] 1 (Homo sapiens) (UniProt P15559); assay: Activity of recombinant human NQO1 assessed as specific activity
RT-112 [3] = assay: Cytotoxicity against NQO2 expressing human RT112 cells by MTT assay; format: functional, cell-based
RT-112 [4] = assay: Cytotoxicity against NQO2 expressing human RT112 cells in presence of NRH cofactor by MTT assay; format: functional, cell-based
RT-112 [5] = assay: Selectivity ratio of IC50 for RT112 cells in presence of cofactor NRH to IC50 for RT112 cells; format: functional, Homo sapiens
BE [6] = assay: Selectivity ratio of IC50 for human H460 cells IC50 for human BE cells; format: functional

Sequence of NAD(P)H dehydrogenase [quinone] 1 (Homo sapiens) (P15559 whole entry): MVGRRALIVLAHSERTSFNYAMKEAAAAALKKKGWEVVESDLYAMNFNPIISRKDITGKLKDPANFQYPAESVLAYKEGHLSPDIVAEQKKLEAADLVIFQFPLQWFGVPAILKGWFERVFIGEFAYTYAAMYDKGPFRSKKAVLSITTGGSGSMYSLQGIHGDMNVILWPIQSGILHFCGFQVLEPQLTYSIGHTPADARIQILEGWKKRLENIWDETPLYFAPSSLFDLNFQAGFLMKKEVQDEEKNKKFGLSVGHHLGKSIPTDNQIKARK

## C[n+]1c2ccccc2cc2[n-]c3cc([N+](=O)[O-])c(Br)cc3c21
BE [1]
  IC50: 0.58 µM
NCI-H460
  IC50: 0.38 µM
[2]
  Activity: 13.9 µmol/min/mg
RT-112 [3]
  IC50: 0.36 µM
RT-112 [4]
  IC50: 0.32 µM

## C[n+]1c2ccc(Cl)cc2cc2[n-]c3c([N+](=O)[O-])cc([N+](=O)[O-])cc3c21
RT-112 [3]
  IC50: 0.29 µM
RT-112 [4]
  IC50: 0.23 µM

## C[n+]1c2ccc(F)cc2cc2[n-]c3c([N+](=O)[O-])cccc3c21
[2]
  Activity: 2.72 µmol/min/mg
RT-112 [3]
  IC50: 1.35 µM
RT-112 [4]
  IC50: 1.1 µM

## C[n+]1c2ccc(Cl)cc2cc2[nH]c3ccc([N+](=O)[O-])cc3c21
BE [1]
  IC50: 0.95 µM
NCI-H460
  IC50: 0.46 µM
[2]
  Activity: 18.9 µmol/min/mg
RT-112 [3]
  IC50: 0.41 µM
RT-112 [4]
  IC50: 0.28 µM

## C[n+]1c2ccccc2cc2[n-]c3ccccc3c21 [CRYPTOLEPINE HYDROCHLORIDE]
BE [1]
  IC50: 1.28 µM
NCI-H460
  IC50: 1.45 µM
[2]
  Activity: 4.53 µmol/min/mg
RT-112 [3]
  IC50: 0.82 µM
RT-112 [4]
  IC50: 0.8 µM

## NC(=O)c1cc(N2CC2)c([N+](=O)[O-])cc1[N+](=O)[O-] [TRETAZICAR]
[2]
  Activity: 3.56 µmol/min/mg
RT-112 [5]
  Ratio IC50: 586
RT-112 [3]
  IC50: 88.8 µM
RT-112 [4]
  IC50: 0.15 µM

## C[n+]1c2ccc(F)cc2cc2[n-]c3ccc([N+](=O)[O-])cc3c21
RT-112 [3]
  IC50: 2.13 µM
RT-112 [4]
  IC50: 1.67 µM

## C[n+]1c2ccccc2cc2[n-]c3c([N+](=O)[O-])cc(Br)cc3c21
BE [1]
  IC50: 0.78 µM
NCI-H460
  IC50: 0.59 µM
[2]
  Activity: 8.66 µmol/min/mg
RT-112 [3]
  IC50: 0.24 µM
RT-112 [4]
  IC50: 0.15 µM

## Cn1c(/C=C/CO)c(CO)c2c1C(=O)C=C(N1CC1)C2=O [APAZIQUONE]
BE [1]
  IC50: 0.6 µM
BE [6]
  Ratio IC50: 100
NCI-H460
  IC50: 0.0059 µM
[2]
  Activity: 79.8 µmol/min/mg

## C[n+]1c2ccc(Cl)cc2cc2[n-]c3c([N+](=O)[O-])cccc3c21
RT-112 [3]
  IC50: 0.88 µM
RT-112 [4]
  IC50: 0.82 µM

## C[n+]1c2ccccc2cc2[n-]c3cc(Cl)c([N+](=O)[O-])cc3c21
RT-112 [3]
  IC50: 1.03 µM
RT-112 [4]
  IC50: 1.08 µM

## C[n+]1c2ccc(F)cc2cc2[n-]c3c([N+](=O)[O-])cc([N+](=O)[O-])cc3c21
[2]
  Activity: 2.96 µmol/min/mg
RT-112 [3]
  IC50: 0.45 µM
RT-112 [4]
  IC50: 0.19 µM

## C[n+]1c2ccccc2cc2[n-]c3c([N+](=O)[O-])c(Cl)ccc3c21
BE [1]
  IC50: 1.48 µM
NCI-H460
  IC50: 1.88 µM
[2]
  Activity: 26.7 µmol/min/mg
RT-112 [3]
  IC50: 0.76 µM
RT-112 [4]
  IC50: 0.64 µM
